The supplement of paper PMC10307832

Experiments:
Assay in all cases: relative viability (nuclei count vs DMSO), 5 days (fraction); higher = more cells survive
NCI-H1650 = tested on: NCI-H1650
How it was run: (§1)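 Values are medians from duplicate plates. Each reflects relative viability, defined as the nuclei count of treated wells over that of vehicle wells. Lung cancer cell lines in 1536-well plates were pin-tool dosed one day after seeding with one drug alone or with a fixed anchor-drug dose plus five library-drug doses (not always all listed) in √10 steps, then fixed, stained and imaged at 4× after 5 days.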

HCC-366 = tested on: HCC-366
How it was run: as §1

NCI-H460 = tested on: NCI-H460
How it was run: as §1

HCC-44 = tested on: HCC-44
How it was run: as §1

NCI-H1734 = tested on: NCI-H1734
How it was run: as §1

A-427 = tested on: A-427
How it was run: as §1

SW 1573 = tested on: SW 1573
How it was run: as §1

NCI-H2009 = tested on: NCI-H2009
How it was run: as §1

NCI-H650 = tested on: NCI-H650
How it was run: as §1

HARA = tested on: HARA
How it was run: as §1

LCLC-97TM1 = tested on: LCLC-97TM1
How it was run: as §1

LOU-NH91 = tested on: LOU-NH91
How it was run: as §1

NCI-H2023 = tested on: NCI-H2023
How it was run: as §1

201T = tested on: 201T
How it was run: as §1

NCI-H1993 = tested on: NCI-H1993
How it was run: as §1

HCC-78 = tested on: HCC-78
How it was run: as §1

NCI-H2126 = tested on: NCI-H2126
How it was run: as §1

HCC-15 = tested on: HCC-15
How it was run: as §1

RERF-LC-KJ = tested on: RERF-LC-KJ
How it was run: as §1

COR-L23 = tested on: COR-L23
How it was run: as §1

O=C(O)CCCCC(CCSCc1ccccc1)SCc1ccccc1 (centres undefined) [CPI-613] + CS(=O)(=O)CCNCc1ccc(-c2ccc3ncnc(Nc4ccc(OCc5cccc(F)c5)c(Cl)c4)c3c2)o1 [Lapatinib] (partner 2 µM)
relative viability (NCI-H1650; first compound 5 µM): 0.584
relative viability (NCI-H1650; first compound 15.81 µM): 0.662
relative viability (NCI-H1650; first compound 50 µM): 0.719
relative viability (NCI-H1650; first compound 158.11 µM): 0.082
relative viability (NCI-H1650; first compound 500 µM): 0.023
relative viability (HCC-366; first compound 5 µM): 0.959
relative viability (HCC-366; first compound 15.81 µM): 1.02
relative viability (HCC-366; first compound 50 µM): 1
relative viability (HCC-366; first compound 158.11 µM): 0.284
relative viability (HCC-366; first compound 500 µM): 0.0085
relative viability (NCI-H460; first compound 5 µM): 0.87
relative viability (NCI-H460; first compound 15.81 µM): 0.853
relative viability (NCI-H460; first compound 50 µM): 0.838
relative viability (NCI-H460; first compound 158.11 µM): 0.243
relative viability (NCI-H460; first compound 500 µM): 0.0072
relative viability (HCC-44; first compound 5 µM): 0.991
relative viability (HCC-44; first compound 15.81 µM): 0.937
relative viability (HCC-44; first compound 50 µM): 1.04
relative viability (HCC-44; first compound 158.11 µM): 0.838
relative viability (HCC-44; first compound 500 µM): 0.0306
relative viability (NCI-H1734; first compound 5 µM): 0.939
relative viability (NCI-H1734; first compound 15.81 µM): 0.686
relative viability (NCI-H1734; first compound 50 µM): 1
relative viability (NCI-H1734; first compound 158.11 µM): 0.349
relative viability (NCI-H1734; first compound 500 µM): 0.116
relative viability (A-427; first compound 5 µM): 0.974
relative viability (A-427; first compound 15.81 µM): 0.94
relative viability (A-427; first compound 50 µM): 1.07
relative viability (A-427; first compound 158.11 µM): 0.996
relative viability (A-427; first compound 500 µM): 0.948
relative viability (SW 1573; first compound 5 µM): 1.24
relative viability (SW 1573; first compound 15.81 µM): 1.06
relative viability (SW 1573; first compound 50 µM): 1.13
relative viability (SW 1573; first compound 158.11 µM): 1.06
relative viability (SW 1573; first compound 500 µM): 1
relative viability (NCI-H2009; first compound 5 µM): 0.996
relative viability (NCI-H2009; first compound 15.81 µM): 0.897
relative viability (NCI-H2009; first compound 50 µM): 0.771
relative viability (NCI-H2009; first compound 158.11 µM): 0.18
relative viability (NCI-H2009; first compound 500 µM): 0.0119
relative viability (NCI-H650; first compound 5 µM): 1.05
relative viability (NCI-H650; first compound 15.81 µM): 0.913
relative viability (NCI-H650; first compound 50 µM): 1.11
relative viability (NCI-H650; first compound 158.11 µM): 0.84
relative viability (NCI-H650; first compound 500 µM): 0.724
relative viability (HARA; first compound 5 µM): 0.702
relative viability (HARA; first compound 15.81 µM): 0.678
relative viability (HARA; first compound 50 µM): 0.792
relative viability (HARA; first compound 158.11 µM): 0.521
relative viability (HARA; first compound 500 µM): 0.0307
relative viability (LCLC-97TM1; first compound 5 µM): 1.19
relative viability (LCLC-97TM1; first compound 15.81 µM): 0.906
relative viability (LCLC-97TM1; first compound 50 µM): 1.07
relative viability (LCLC-97TM1; first compound 158.11 µM): 1.01
relative viability (LCLC-97TM1; first compound 500 µM): 0.0553
relative viability (LOU-NH91; first compound 5 µM): 0.79
relative viability (LOU-NH91; first compound 15.81 µM): 0.722
relative viability (LOU-NH91; first compound 50 µM): 0.834
relative viability (LOU-NH91; first compound 158.11 µM): 0.739
relative viability (LOU-NH91; first compound 500 µM): 0.699
relative viability (NCI-H2023; first compound 5 µM): 0.694
relative viability (NCI-H2023; first compound 15.81 µM): 0.63
relative viability (NCI-H2023; first compound 50 µM): 0.755
relative viability (NCI-H2023; first compound 158.11 µM): 0.0743
relative viability (NCI-H2023; first compound 500 µM): 0.0041
relative viability (201T; first compound 5 µM): 1.09
relative viability (201T; first compound 15.81 µM): 0.958
relative viability (201T; first compound 50 µM): 0.953
relative viability (201T; first compound 158.11 µM): 0.978
relative viability (201T; first compound 500 µM): 0.972
relative viability (NCI-H1993; first compound 5 µM): 0.777
relative viability (NCI-H1993; first compound 15.81 µM): 0.706
relative viability (NCI-H1993; first compound 50 µM): 0.774
relative viability (NCI-H1993; first compound 158.11 µM): 0.567
relative viability (NCI-H1993; first compound 500 µM): 0.41
relative viability (HCC-78; first compound 5 µM): 0.825
relative viability (HCC-78; first compound 15.81 µM): 0.591
relative viability (HCC-78; first compound 158.11 µM): 0.816
relative viability (HCC-78; first compound 500 µM): 1.14
relative viability (NCI-H2126; first compound 5 µM): 0.723
relative viability (NCI-H2126; first compound 15.81 µM): 0.754
relative viability (NCI-H2126; first compound 50 µM): 0.758
relative viability (NCI-H2126; first compound 158.11 µM): 0.612
relative viability (NCI-H2126; first compound 500 µM): 0.738
relative viability (HCC-15; first compound 5 µM): 0.785
relative viability (HCC-15; first compound 15.81 µM): 0.801
relative viability (HCC-15; first compound 50 µM): 0.682
relative viability (HCC-15; first compound 158.11 µM): 0.599
relative viability (HCC-15; first compound 500 µM): 0.285
relative viability (RERF-LC-KJ; first compound 5 µM): 0.857
relative viability (RERF-LC-KJ; first compound 15.81 µM): 0.826
relative viability (RERF-LC-KJ; first compound 50 µM): 0.782
relative viability (RERF-LC-KJ; first compound 158.11 µM): 0.854
relative viability (RERF-LC-KJ; first compound 500 µM): 0.819
relative viability (COR-L23; first compound 5 µM): 0.826
relative viability (COR-L23; first compound 15.81 µM): 0.969
relative viability (COR-L23; first compound 50 µM): 0.746
relative viability (COR-L23; first compound 158.11 µM): 0.459
relative viability (COR-L23; first compound 500 µM): 0.0098
